Several values for one entry are separate records, joined by “and”; a condition that tells them apart may be missing. Identical values can stand only once.
Key:
[1] = system: mouse EPS cell aggregates; assay: EPS-blastoid formation efficiency (blastocyst-like structures / total cell aggregates) in AggreWell 3D differentiation; format: cell-based; conditions: for Nblastoid/Ntotal (%), EPS-blastoid efficiency with treatment of Wnt antagonists: XAV939 5 μM or IWR-1-endo 10 μM added to medium at day 1, five days in blastoid induction medium; for EPS-blastoids formation (effect of WNT antagonists, in words): blastoid induction medium supplemented with antagonist
From the text: To further improve the differentiation conditions, different growth factors, cytokines, and small molecules were included to identify condition(s) that enable the generation of structures mimicking blastocysts (EPS-blastoids), which contain a cavity and an inner cell mass. […] Using this optimized condition, EPS-blastoids consistently emerged three days after cell seeding (FIG. 1D). EPS-blastoids continued to enlarge, reaching an early blastocyst-like size at around day five or day six. To quantify the efficiency of EPS-blastoid formation, the total number of blastocyst-like structures were counted, with this count divided it by the total number of cell aggregates.
EPS colonies were dissociated into single cells by incubation with TrypLE (Thermo Fisher Scientific, 12604-013). Cell resuspension was transferred into a 0.1% gelatin-coated plate and incubated at 37° C. for 30 min to allow irradiated MEF cells attach to the plate. The supernatant containing the EPS cells were collected, filtered through a 40 μm cell strainer, and counted using the TC-10 counter (Bio-Rad, 1450001). AggreWell 400 (STEMCELL Technologies, 34415) was prepared following the manufacturer's instructions. EPS-blastoid basal medium is composed of 25% TSC basal medium (see above), 25% N2B27 basal medium (see above), and 50% KSOM (see above). In some experiments, M16 (Sigma-Aldrich, M7292) was used to replace KSOM. Approximately 6,000 cells (five cells per microwell for 1200 microwells) were resuspended in EPS-blastoid basal medium supplemented with 2 μM ROCK inhibitor Y-27632 (Reagents Direct, 53-B80-50), 12.5 ng/ml rhFGF4 (R&D, 235F4025), 0.5 μg/ml Heparin (Sigma-Aldrich, H3149), 3 μM GSK3 inhibitor CHIR99021 (Reagents Direct, 27-H76), 5 ng/ml BMP4 (Proteintech, HZ-1040), and 0.5 μM A83-01 (Axon Medchem, 1421) and seeded into one well of the 24-well AggreWell plate. The plate was centrifuged at 300g for one minute and transferred into an incubator. The day of cell seeding was counted as day 0 of the process. Medium was removed 24 h later (day 1) and replaced with fresh medium without Y-27632. Additional medium change is optional for the rest of the EPS-blastoid formation process. Starting from day 4, blastoids were manually picked up using a mouth pipette (Sigma-Aldrich, A5177) under a stereomicroscope for analysis or downstream experiments. For testing of the effect of antagonists or inhibitors on EPS-blastoid induction, chemicals were added to the medium at day 1. XAV939 (5 μM; Tocris, 3748) or IWR-1-endo (10 μM; STEMCELL Technologies, 72562) was used to inhibit Wnt signaling. Verteporfin (2 μM; Tocris, 5305) was used to inhibit YAP/TEAD interaction. For testing whether a single EPS cell forms into a blastoid, WT cells and Puromycin+/mcherry+ cells were mixed at a ratio of 10:1 and seeded onto Aggrewell 400 as stated above. Puromycin (0.25 μg/ml; InvivoGen, ant-pr-1) was added to the medium 24 hours later to eliminate helper cells gradually.

EPS cells = assay: EPS cell survival on the day of seeding; format: cell-based, mouse; conditions: treated on the day of seeding
mouse ESCs = conditions: He et al., 2008; cited from earlier work

With verteporfin [VP] as the molecule, how does the “Nblastoid/Ntotal (%), EPS-blastoid efficiency with treatment of YAP-TEAD inhibitor” value ([1]; verteporfin 2 μM added to medium at day 1, five days of blastoid induction, per experiment) read?
Its value is 1.43% and 0.36% and 0.87% and 1.05%.

For Oc1nc(-c2ccc(C(F)(F)F)cc2)nc2c1CSCC2 [XAV939], which “Nblastoid/Ntotal (%), EPS-blastoid efficiency with treatment of Wnt antagonists” value ([1]; per experiment, listed as XVA939) is on record?
The value was 0.3% and 0.28% and 0.45% and 0.41% and 0.8%.

And the “EPS-blastoids formation (effect of WNT antagonists, in words)” value [1]?
Its value is “significantly inhibited”.

For C[C@@H](N)[C@H]1CC[C@H](C(=O)Nc2ccncc2)CC1 [Y-27632], which “cell survival of EPS cells” value (EPS cells) is on record?
The value was “enhanced cell survival”.

Which “Nblastoid/Ntotal (%), EPS-blastoid efficiency with treatment of Wnt antagonists” value ([1]; per experiment) does the source give for O=C(Nc1cccc2cccnc12)c1ccc(N2C(=O)[C@@H]3[C@H](C2=O)[C@@H]2C=C[C@H]3C2)cc1 [IWR-1-endo] here?
Its value is 0.28% and 0.41% and 1.23% and 0.81% and 0.42%.

And the “EPS-blastoids formation (effect of WNT antagonists, in words)” value [1]?
Its value is “significantly inhibited”.

B1: Wnt-3a (protein, UniProt P56704 19-352, looked up)
Protein Wnt-3a: SYPIWWSLAVGPQYSSLGSQPILCASIPGLVPKQLRFCRNYVEIMPSVAEGIKIGIQECQHQFRGRRWNCTTVHDSLAIFGPVLDKATRESAFVHAIASAGVAFAVTRSCAEGTAAICGCSSRHQGSPGKGWKWGGCSEDIEFGGMVSREFADARENRPDARSAMNRHNNEAGRQAIASHMHLKCKCHGLSGSCEVKTCWWSQPDFRAIGDFLKDKYDSASEMVVEKHRESRGWVETLRPRYTYFKVPTERDLVYYEASPNFCEPNPETGSFGTRDRTCNVSSHGIDGCDLLCCGRGHNARAERRREKCRCVFHWCCYVSCQECTRVYDVHTCK
notes: Wnt agonist protein
Which “CDX2 (trophoblast transcription factor) expression in mouse ESCs” value (mouse ESCs) does the source give for B1 here?
The value was “transiently up-regulates CDX2”.

From patent US20230115640A1, “BLASTOCYST-LIKE STRUCTURES FROM EXTENDED PLURIPOTENT STEM CELLS” (Salk Institute for Biological Studies, priority 2019, published 2023)
